# Results as given in the NIST ThermoML archive (doi:10.1016/j.jct.2012.02.004).
# Test: xn = mol fraction of the nth substance listed
# Conditions: 298.15 K, 101 kPa, Liquid, Taylor dispersion method
Compound,binary diffusion coefficient (x1 = 0) [m2/s],binary diffusion coefficient (x1 = 0.00119) [m2/s],binary diffusion coefficient (x1 = 0.00475) [m2/s],binary diffusion coefficient (x1 = 0.0095) [m2/s],binary diffusion coefficient (x1 = 0.019) [m2/s],binary diffusion coefficient (x1 = 0.038) [m2/s]
C[N+](C)(C)CCCCCCCCCCCC[N+](C)(C)C.[Br-].[Br-] + O,1.01e-09,9.72e-10,9.45e-10,9.11e-10,8.7e-10,8.05e-10
C[N+](C)(C)CCCCCCCCCC[N+](C)(C)C.[Br-].[Br-] [decamethonium bromide] + O,1.06e-09,9.9e-10,9.55e-10,9.04e-10,8.61e-10,8.43e-10
